Tests used:
[1] = biological target: T1, MAT2A homodimer (Homo sapiens, UniProt P31153); assay: MAT2A inhibition (biochemical, liberated phosphate, PiColorLock Gold); conditions: recombinant MAT2A homodimer; IC50 bin with Max Inh.; read-out: Enzyme Inhibition Bin
T1 construct: inferred from Ni sepharose purification with imidazole elution; made in house; host or cells: Sf9 insect cells, baculovirus (Bac to Bac, pFASTBAC1)
Summary of the method: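 Baculovirus/Sf9-expressed, Ni-purified MAT2A (4 μg/mL) preincubated with compound 60 min at 25 °C in Tris pH 8.0/KCl/MgCl2 buffer. Reaction started with 500 μM ATP and 400 μM L-methionine (substrate-mix concentrations), run 60 min at 25 °C. Phosphate measured colorimetrically against a phosphate standard curve to give IC50.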

[2] = system: HCT116 MTAP+/+; assay: Inhibition of cellular proliferation, 4 days, Cell Titer Glo, HCT116 MTAP+/+; format: cell-based; conditions: Homo sapiens, HCT-116, 96 h, IC50 bin with Max Inh., read-out: 4 Day Relative Growth Inhibition (MTAP +/+)
Summary of the method: (§1)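 Isogenic HCT116 pair differing only in MTAP status, plated 24 h before treatment with 10-point 3-fold dilutions; 4 days at 37° C./5% CO2. Cell Titer Glo luminescence, blank-subtracted and normalised to 0.2% DMSO control, gives percentage proliferation vs log molar concentration for IC50.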

[3] = system: HCT116 MTAP−/−; assay: Inhibition of cellular proliferation, 4 days, Cell Titer Glo, HCT116 MTAP−/−; format: cell-based; conditions: Homo sapiens, HCT-116, 96 h, IC50 bin with Max Inh., read-out: 4 Day Relative Growth Inhibition (MTAP −/−)
Summary of the method: as §1

[4] = system: SAM in HCT116 human colon carcinoma cell line with MTAP gene deleted (MTAP −/−); assay: Cellular assay of target engagement (SAM), LC-MS/MS, 72 hrs; format: cell-based; conditions: HCT-116, IC50 bin with Max Inh., read-out: Cell 72 h SAM Inhibition (MTAP −/−)
Summary of the method: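 MTAP-deleted HCT116 cells plated 24 h, then given 10-point 3-fold dilutions for 72 hrs at 37° C. Intracellular SAM extracted in cold 80% methanol with 1M acetic acid and d3-SAM standard, quantified by LC-MS/MS (MRM m/z 399.2→250.1); IC50 derived.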

T1 sequence (P31153 whole entry): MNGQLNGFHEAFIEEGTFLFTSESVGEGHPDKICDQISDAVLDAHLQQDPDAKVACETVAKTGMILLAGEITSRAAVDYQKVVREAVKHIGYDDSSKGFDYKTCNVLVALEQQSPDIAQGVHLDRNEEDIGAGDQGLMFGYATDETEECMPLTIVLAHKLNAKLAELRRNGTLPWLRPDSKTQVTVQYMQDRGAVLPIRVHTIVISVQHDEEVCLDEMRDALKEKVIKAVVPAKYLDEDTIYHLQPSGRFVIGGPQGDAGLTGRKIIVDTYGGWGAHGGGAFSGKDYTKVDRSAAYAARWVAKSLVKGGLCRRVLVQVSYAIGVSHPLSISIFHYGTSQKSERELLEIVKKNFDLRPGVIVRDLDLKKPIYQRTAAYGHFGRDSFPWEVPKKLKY

Row | SMILES | IC50 [1] [nM] | IC50 [2] [nM] | IC50 [3] [nM] | IC50 [4] [nM]
1 | CCc1ccc(-c2c(=O)n(-c3ccc4nc(C)n(C)c4c3)nc3ccn(CC4CC4)c23)cn1 [Example 142, 5-(cyclopropylmethyl)-2-(1,2-dimethyl-1H-benzo[d]imidazol-6-yl)-4-(6-ethylpyridin-3-yl)-2,5-dihydro-3H-pyrrolo[3,2-c]pyridazin-3-one] | < 100 | > 1000 | < 100 | < 100
2 | Cn1cc2cc(-n3nc4c(C#N)cn(CC5CC5)c4c(-c4ccc(C(F)F)nc4)c3=O)ccc2n1 [Example 143, 5-(cyclopropylmethyl)-4-(6-(difluoromethyl)pyridin-3-yl)-2-(2-methyl-2H-indazol-5-yl)-3-oxo-3,5-dihydro-2H-pyrrolo[3,2-c]pyridazine-7-carbonitrile] | < 100 | 100 to 1000 | < 100 | < 100
3 | CNC(=O)c1ccc(-c2c(=O)n(-c3ccc4nn(C)cc4c3)nc3ccn(CC4CC4)c23)cn1 [Example 144, 5-(5-(cyclopropylmethyl)-2-(2-methyl-2H-indazol-5-yl)-3-oxo-3,5-dihydro-2H-pyrrolo[3,2-c]pyridazin-4-yl)-N-methylpicolinamide] | 100 to 1000 | > 1000 | > 1000 | 100 to 1000
4 | CCCn1cc(C#N)c2nn(-c3ccc4nn(C)cc4c3)c(=O)c(-c3ccc(C)nc3)c21 [Example 145, 2-(2-methyl-2H-indazol-5-yl)-4-(6-methylpyridin-3-yl)-3-oxo-5-propyl-3,5-dihydro-2H-pyrrolo[3,2-c]pyridazine-7-carbonitrile] | < 100 | 100 to 1000 | 100 to 1000 | 100 to 1000
5 | Cc1nc2ccc(-n3nc4c(C#N)cn(CC5CC5)c4c(-c4ccc(C(F)F)nc4)c3=O)cc2n1C [Example 147, 5-(cyclopropylmethyl)-4-(6-(difluoromethyl)pyridin-3-yl)-2-(1,2-dimethyl-1H-benzo[d]imidazol-6-yl)-3-oxo-3,5-dihydro-2H-pyrrolo[3,2-c]pyridazine-7-carbonitrile] | < 100 | 100 to 1000 | < 100 | < 100
6 | Cc1nc2ccc(-n3nc4c(C#N)cn(CC5CC5)c4c(-c4ccc(C5CC5)nc4)c3=O)cc2n1C [Example 148, 5-(cyclopropylmethyl)-4-(6-cyclopropylpyridin-3-yl)-2-(1,2-dimethyl-1H-benzo[d]imidazol-6-yl)-3-oxo-3,5-dihydro-2H-pyrrolo[3,2-c]pyridazine-7-carbonitrile] | < 100 | < 100 | < 100 | < 100
7 | Cn1cc2cc(-n3nc4c(C#N)cn(CC5CC5)c4c(-c4ccc(C#N)cc4)c3=O)ccc2n1 [Example 149, 4-(4-cyanophenyl)-5-(cyclopropylmethyl)-2-(2-methyl-2H-indazol-5-yl)-3-oxo-3,5-dihydro-2H-pyrrolo[3,2-c]pyridazine-7-carbonitrile] | < 100 | > 1000 | 100 to 1000 | 100 to 1000
8 | Cn1cc2cc(-n3nc4ccn(CC5CC5)c4c(-c4ccc(C5CC5)cc4)c3=O)ccc2n1 [Example 150, 5-(cyclopropylmethyl)-4-(4-cyclopropylphenyl)-2-(2-methyl-2H-indazol-5-yl)-2,5-dihydro-3H-pyrrolo[3,2-c]pyridazin-3-one] | < 100 | > 1000 | < 100 | < 100
9 | Cc1ccc(-c2c(=O)n(-c3ccc4nc(C)n(C)c4c3)nc3c(C#N)cn(CC4CC4)c23)cn1 [Example 151, 5-(cyclopropylmethyl)-2-(1,2-dimethyl-1H-benzo[d]imidazol-6-yl)-4-(6-methylpyridin-3-yl)-3-oxo-3,5-dihydro-2H-pyrrolo[3,2-c]pyridazine-7-carbonitrile] | < 100 | > 1000 | < 100 | < 100
10 | CCc1ccc(-c2c(=O)n(-c3ccc4nc(C)n(C)c4c3)nc3c(C#N)cn(CC4CC4)c23)cn1 [Example 152, 5-(cyclopropylmethyl)-2-(1,2-dimethyl-1H-benzo[d]imidazol-6-yl)-4-(6-ethylpyridin-3-yl)-3-oxo-3,5-dihydro-2H-pyrrolo[3,2-c]pyridazine-7-carbonitrile] | < 100 | > 1000 | < 100 | < 100
11 | Cn1cc2cc(-n3nc4ccn(CC5CC5)c4c(-c4ccc(C#N)nc4)c3=O)ccc2n1 [Example 153, 5-(5-(cyclopropylmethyl)-2-(2-methyl-2H-indazol-5-yl)-3-oxo-3,5-dihydro-2H-pyrrolo[3,2-c]pyridazin-4-yl)picolinonitrile] | 100 to 1000 | > 1000 | > 1000 | 100 to 1000
12 | Cn1cc2cc(-n3nc4ccn(CC5CC5)c4c(-c4ccc(C#N)cc4)c3=O)ccc2n1 [Example 154, 4-(5-(cyclopropylmethyl)-2-(2-methyl-2H-indazol-5-yl)-3-oxo-3,5-dihydro-2H-pyrrolo[3,2-c]pyridazin-4-yl)benzonitrile] | < 100 | 100 to 1000 | 100 to 1000 | 100 to 1000
13 | Cn1cc2cc(-n3nc4ccn(CC5CC5)c4c(-c4ccc(C(N)=O)nc4)c3=O)ccc2n1 [Example 155, 5-(5-(cyclopropylmethyl)-2-(2-methyl-2H-indazol-5-yl)-3-oxo-3,5-dihydro-2H-pyrrolo[3,2-c]pyridazin-4-yl)picolinamide] | < 100 | > 1000 | 100 to 1000 | 100 to 1000
14 | Cc1nc2ccc(-n3nc4ccn(CC5CC5)c4c(-c4ccc(C5CC5)nc4)c3=O)cc2n1C [Example 156, 5-(cyclopropylmethyl)-4-(6-cyclopropylpyridin-3-yl)-2-(1,2-dimethyl-1H-benzo[d]imidazol-6-yl)-2,5-dihydro-3H-pyrrolo[3,2-c]pyridazin-3-one] | < 100 | < 100 | < 100 | < 100
15 | Cn1cc2cc(-n3nc4ccn(CC5CC5)c4c(-c4ccc(CO)nc4)c3=O)ccc2n1 [Example 157, 5-(cyclopropylmethyl)-4-(6-(hydroxymethyl)pyridin-3-yl)-2-(2-methyl-2H-indazol-5-yl)-2,5-dihydro-3H-pyrrolo[3,2-c]pyridazin-3-one] | < 100 | 100 to 1000 | < 100 | < 100
16 | Cn1cc2cc(-n3nc4c(C#N)cn(CC5CC5)c4c(-c4ccc(CO)nc4)c3=O)ccc2n1 [Example 158, 5-(cyclopropylmethyl)-4-(6-(hydroxymethyl)pyridin-3-yl)-2-(2-methyl-2H-indazol-5-yl)-3-oxo-3,5-dihydro-2H-pyrrolo[3,2-c]pyridazine-7-carbonitrile] | < 100 | > 1000 | 100 to 1000 | 100 to 1000
17 | Cn1cc2cc(-n3nc4c(C#N)cn(CC5CCC5)c4c(-c4ccc(C5CC5)nc4)c3=O)ccc2n1 [Example 159, 5-(cyclobutylmethyl)-4-(6-cyclopropylpyridin-3-yl)-2-(2-methyl-2H-indazol-5-yl)-3-oxo-3,5-dihydro-2H-pyrrolo[3,2-c]pyridazine-7-carbonitrile] | < 100 | > 1000 | 100 to 1000 | < 100
18 | N#Cc1cn(CC2CC2)c2c(-c3ccc(C4CC4)nc3)c(=O)n(-c3ccc4nn(CC5CC5)cc4c3)nc12 [Example 160, 5-(cyclopropylmethyl)-2-(2-(cyclopropylmethyl)-2H-indazol-5-yl)-4-(6-cyclopropylpyridin-3-yl)-3-oxo-3,5-dihydro-2H-pyrrolo[3,2-c]pyridazine-7-carbonitrile] | < 100 | 100 to 1000 | < 100 | < 100
19 | [2H]C([2H])([2H])Oc1ccc(-c2c(=O)n(-c3ccc4nn(C)cc4c3)nc3c(C#N)cn(CC4CC4)c23)cc1 [Example 161, 5-(cyclopropylmethyl)-4-(4-(methoxy-d3)phenyl)-2-(2-methyl-2H-indazol-5-yl)-3-oxo-3,5-dihydro-2H-pyrrolo[3,2-c]pyridazine-7-carbonitrile] | < 100 | > 1000 | < 100 | < 100
20 | CNC(=O)c1cn(CC2CC2)c2c(-c3ccc(C4CC4)nc3)c(=O)n(-c3ccc4nn(C)cc4c3)nc12 [Example 162, 5-(cyclopropylmethyl)-4-(6-cyclopropylpyridin-3-yl)-N-methyl-2-(2-methyl-2H-indazol-5-yl)-3-oxo-2H,3H,5H-pyrrolopyridazine-7-carboxamide] | < 100 | 100 to 1000 | < 100 | < 100
21 | Cn1cc2cc(-n3nc4c(C(=O)O)cn(CC5CC5)c4c(-c4ccc(C5CC5)nc4)c3=O)ccc2n1 [Example 163, 5-(cyclopropylmethyl)-4-(6-cyclopropylpyridin-3-yl)-2-(2-methyl-2H-indazol-5-yl)-3-oxo-3,5-dihydro-2H-pyrrolo[3,2-c]pyridazine-7-carboxylic acid] | < 1000 | > 1000 | 100 to 1000 | > 1000
